Assay results published in US20250108027A1, “TOPICAL DELIVERY OF EDTA COMPOSITIONS” (priority 2023, published 2025).
Converted amounts (≈) assume the structure as drawn.

Columns and labels:
[1] = test system: S. epidermidis HC3-CA-1; assay: MIC in isolation, microbroth dilution; type: cell-based
Method: (§1) Microbroth dilution in 96-well microtiter plates was performed on the E. coli and S. epidermidis strains. […] Each test was performed in duplicate. The MIC was determined as the lowest concentration where no growth was observed, but the adjacent wells had growth as determined by optical density.

[2] = test system: E. Coli HC1-R2A-1; assay: MBC in combination, checkerboard titration and subculture; details: in combination with tetracycline
Method: (§3) Microtiter plates were incubated at 37° C. for 24 h and the results were analyzed. Each test included a growth control without addition of any antimicrobials, as well as an uninoculated control column to ensure there was no contamination in the plate. The combination MIC was taken as the concentration where no growth was observed by optical density but the wells immediately adjacent had growth. To determine the MBC, 5 μL aliquots were removed from each well in the 96-well MIC plates above and used to inoculate a new microtiter plate that was filled with Mueller-Hinton media. This new microtiter plate was incubated at 37° C. for 24 h and growth was quantified by measuring the optical density in the wells.
(§4) The potential interaction of the two antimicrobials was determined by the FICI (fractional inhibitory concentration index) and FBCI (fractional bactericidal concentration index).

[3] = test system: E. Coli HC1-R2A-1; details: alone, 37° C., 24 h
Method: as §1

[4] = test system: E. Coli HC1-R2A-1; assay: MIC in combination, checkerboard titration; details: in combination with tetracycline
Method: as §3, §4

[5] = test system: S. epidermidis HC3-CA-1; assay: MBC in isolation, subculture from MIC plates; type: cell-based
Method: (§2) This new microtiter plate was incubated at 37° C. and growth was quantified after 24 h by measuring the optical density in the wells.

[6] = test system: E. Coli HC1-R2A-1; assay: MBC in isolation, subculture from MIC plates; type: cell-based
Method: as §2

[7] = test system: S. epidermidis HC3-CA-1; assay: MBC in combination, checkerboard titration and subculture; details: in combination with tetracycline
Method: as §3, §4

[8] = test system: S. epidermidis HC3-CA-1; assay: MIC in combination, checkerboard titration; details: in combination with tetracycline
Method: as §3, §4

Compound	MIC in Isolation, T-EDTA ([1]; alone, 37° C., 24 h)	MBC in Combination, T-EDTA [2]	MIC in Isolation, T-EDTA [3]	MIC in Combination, T-EDTA [4]	MBC in Isolation, T-EDTA ([5]; alone)	MBC in Isolation, T-EDTA ([6]; alone)	MBC in Combination, T-EDTA [7]	MIC in Combination, T-EDTA [8]	MIC ([1]; Staphylococcus epidermidis, HC3CA1, read-out: MIC in Isolation, Tetracycline, alone, 37° C., 24 h)	MBC ([5]; Staphylococcus epidermidis, HC3CA1, read-out: MBC in Isolation, Tetracycline, alone)	MBC ([6]; Escherichia coli, read-out: MBC in Isolation, Tetracycline, alone)
O=C([O-])CN(CCN(CC(=O)[O-])CC(=O)[O-])CC(=O)[O-].[Na+].[Na+].[Na+].[Na+] [T-EDTA, tetrasodium EDTA]	0.0625 wt %	0.25 wt %	1 wt %	0.25 wt %	4 wt %	1 wt %	0.25 wt %	0.015 wt %			
CN(C)[C@@H]1C(O)=C(C(N)=O)C(=O)[C@@]2(O)C(O)=C3C(=O)c4c(O)cccc4[C@@](C)(O)[C@H]3C[C@@H]12 [Tetracycline, tetracycline, reference compound]									8 µg/mL (≈ 18 µM)	8 µg/mL (≈ 18 µM)	512 µg/mL (≈ 1150 µM)
